Like-named read-outs stand apart in the source and are kept apart here.
Assays:
[1] = MeOAMVN-initiated co-autoxidation of STY-BODIPY and egg PC liposomes (FENIX); assay type: biochemical; details: for n (radical-trapping stoichiometry): MeOAMVN-initiated co-autoxidation of STY-BODIPY and egg PC liposomes; for predicted increase in kinh^lip relative to PNX: predicted/estimated kinh^lip vs PNX; for kinh^lip (predicted/estimated): estimated from kinh^0 and effective β2^H of egg PC liposomes
[2] = system: Pfa-1 mouse embryonic fibroblasts (MEFs); assay: cells; details: Fibroblast
[3] = H-bond acidity (α2^H) of the RTA by 1H NMR; assay type: physicochemical; details: estimated from the 1H NMR chemical shift difference of the amine proton in DMSO-d6 and benzene-d6
[4] = system: Pfa-1 mouse embryonic fibroblasts (MEFs); details: RSL3-induced cell death (150 nM for 5 hours), AquaBluer
[5] = apparent inhibition rate constant, MeOAMVN-initiated autoxidation of egg PC liposomes, determined by absorbance (STY-BODIPY 10-20 μM, 565 nm)
[6] = 5 h, read-out: Pfa-1 MEF Ferroptosis EC50, RSL3-induced cell death (150 nM for 5 hours), AquaBluer
[7] = apparent inhibition rate constant, MeOAMVN-initiated autoxidation of egg PC liposomes, determined by fluorescence
[8] = Table 6, from survival curve of RSL3 induced ferroptosis of pfa-1 MEFS
[9] = predicted from log kinh^0, α2^H and β2^H=0.69 using Eq. 4 (too reactive to be determined directly)

Structure (SMILES) | α2^H [3] | n (radical-trapping stoichiometry) [1] | EC50 [2, 6] | kinh^lip [1, 7] | further results
c1ccc2c(c1)Nc1ccccc1[Se]2 [Compound 3, phenoselenazine, reference compound] | 0.36 | 2.3 ± 0.1 | 23 ± 2 nM |  | kinh^lip [1, 5]: (56 ± 3)^e 10^5 M^−1s^−1
c1ccc2c(c1)Nc1cc3ccccc3cc1O2 [Compound 4, 12H-Benzo[b]phenoxazine] | 0.49 | 2.4 ± 0.1 | 5.2 ± 0.9 nM | (101 ± 12) 10^5 M^−1s^−1 | 
c1ccc2c(c1)Nc1cc3ccccc3cc1S2 [Compound 5, 12H-Benzo[b]phenothiazine, reference compound] | 0.40 | 1.9 ± 0.1 | 7.8 ± 0.2 nM | (51 ± 3) 10^5 M^−1s^−1 | 
FC(F)(F)c1ccc2c(c1)Oc1ccccc1N2 [Compound 9, 3-trifluoromethylphenoxazine] |  | 3.0 ± 0.1 | 12 nM | (42 ± 2) 10^5 M^−1s^−1 | EC50 [2, 8]: 12 ± 1 nM
N#Cc1ccc2c(c1)Oc1cc(C=O)ccc1N2 [Compound 14, 3-Cyano-7-formylphenoxazine] | 0.64 |  |  | (7.1 ± 0.1) 10^5 M^−1s^−1 | EC50 ([2]; 5 h, read-out: Pfa-1 MEF Ferroptosis EC50): 240 ± 16 nM
O=[N+]([O-])c1ccc2c(c1)Oc1cc([N+](=O)[O-])ccc1N2 [Compound 19, 3,7-Dinitrophenoxazine] | 0.72 |  | 405 nM |  | kinh^lip [1, 5]: (1.3 ± 0.1)^e 10^5 M^−1s^−1
CC(C)(C)c1ccc2c(c1)Nc1cc(C(C)(C)C)ccc1O2 [Compound 33, 2,8-di-tert-butylphenoxazine] |  |  | 7.2 ± 0.4 nM |  | kinh^lip [1, 9]: 730 ^f 10^5 M^−1s^−1; EC50 [2, 8]: 7.2 ± 0.4 nM
CC(C)(C)c1ccc2c(c1)Oc1cc(C(C)(C)C)ccc1N2 [Compound 34, 3,7-di-tert-butylphenoxazine] |  |  | 7.4 ± 0.1 nM |  | kinh^lip [1, 9]: 1280 ^f 10^5 M^−1s^−1; EC50 [2, 8]: 7.4 ± 0.1 nM
CC(c1ccc2c(c1)Nc1ccccc1O2)S(=O)(=O)NCCN(C)C (stereo not shown) [Compound 43, N-(2-(dimethylamino)ethyl)-1-(10H-phenoxazin-2-yl)ethanesulfonamide] |  |  | 15 ± 1 nM |  | EC50 [2, 8]: 15 ± 1 nM
CC(c1ccc2c(c1)Nc1ccc(C(F)(F)F)cc1O2)S(=O)(=O)NCCN(C)C (stereo not shown) [Compound 44, N-(2-(dimethylamino)ethyl)-1-(7-(trifluoromethyl)-10H-phenoxazin-2-yl)ethanesulfonamide] |  |  | 2.2 ± 0.1 nM |  | Pfa-1 MEF Ferroptosis EC50 [4]: single-digit nanomolar potency; EC50 [2, 8]: 2.2 ± 0.1 nM
CC(c1ccc2c(c1)Nc1ccccc1O2)S(=O)(=O)N1CCNCC1 (stereo not shown) [Compound 45, 2-(1-(piperazin-1-ylsulfonyl)ethyl)-10H-phenoxazine] |  |  | 13 ± 1 nM |  | EC50 [2, 8]: 13 ± 1 nM
CC(c1ccc2c(c1)Nc1ccc(C(F)(F)F)cc1O2)S(=O)(=O)N1CCNCC1 (stereo not shown) [Compound 46, 2-(1-(piperazin-1-ylsulfonyl)ethyl)-7-(trifluoromethyl)-OH-phenoxazine] |  |  | 3 ± 0.1 nM |  | Pfa-1 MEF Ferroptosis EC50 [4]: single-digit nanomolar potency; EC50 [2, 8]: 3 ± 0.1 nM
CC(c1ccc2c(c1)Nc1ccccc1O2)S(=O)(=O)N1CCN(C)CC1 (stereo not shown) [Compound 47, 2-(1-((4-methylpiperazin-1-yl)sulfonyl)ethyl)-10H-phenoxazine] |  |  | 45 ± 6 nM |  | EC50 [2, 8]: 45 ± 6 nM
CC(c1ccc2c(c1)Nc1ccc(C(F)(F)F)cc1O2)S(=O)(=O)N1CCN(C)CC1 (stereo not shown) [Compound 48, 2-(1-((4-methylpiperazin-1-yl)sulfonyl)ethyl)-7-(trifluoromethyl)-10H-phenoxazine] |  |  | 16 ± 2 nM |  | EC50 [2, 8]: 16 ± 2 nM
CC(C)(C)c1ccc2c(c1)Nc1ccc(S(=O)(=O)N3CCNCC3)cc1O2 [Compound 60, 2-tert-Butyl-7-(piperazin-1-ylsulfonyl)-phenoxazine] |  |  | 3 ± 0.2 nM |  | EC50 [2, 8]: 3 ± 0.2 nM
CN1CCN(S(=O)(=O)c2ccc3c(c2)Oc2ccc(C(C)(C)C)cc2N3)CC1 [Compound 61, 2-tert-Butyl-7-(4-methylpiperazin-1-ylsulfonyl)-phenoxazine] |  |  | 15 ± 1 nM |  | 
CCN(CC)S(=O)(=O)c1ccc2c(c1)Oc1ccccc1N2 [Compound 65, N,N-diethyl-3-sulfonamidephenoxazine] |  |  | 31 ± 1 nM |  | 

Second part, led by results:

α2^H [3] | Structure (SMILES) | n (radical-trapping stoichiometry) [1] | EC50 [2, 6] | kinh^lip [1, 7] | further results
0.63 | O=Cc1ccc2c(c1)Oc1cc(C=O)ccc1N2 [Compound 13, 3,7-Diformylphenoxazine] | 3.2 ± 0.1 | 340 ± 49 nM | (10 ± 1) 10^5 M^−1s^−1 | 
0.62 | O=[N+]([O-])c1ccc2c(c1)Oc1ccccc1N2 [Compound 15, 3-nitrophenoxazine] | 2.2 ± 0.1 | 43 nM |  | kinh^lip [1, 5]: (10 ± 1)^e 10^5 M^−1s^−1
0.60 | Cc1ccc2c(c1)Oc1cc([N+](=O)[O-])ccc1N2 [Compound 16, 3-Methyl-7-nitrophenoxazine] | 3.8 ± 0.3 | 15 ± 1 nM |  | kinh^lip [1, 5]: (23 ± 2)^e 10^5 M^−1s^−1
0.60 | COc1ccc2c(c1)Oc1cc([N+](=O)[O-])ccc1N2 [Compound 17, 3-nitro-7-methoxyphenoxazine] | 2.9 ± 0.2 | 31 ± 1 nM |  | kinh^lip [1, 5]: (61 ± 4)e 10^5 M^−1s^−1
0.58 | CCN(CC)c1ccc2c(c1)Oc1cc([N+](=O)[O-])ccc1N2 [Compound 18, N,N-diethyl-3-amine-7-nitrophenoxazine] | 2.4 ± 0.4 | 14 ± 2 nM |  | kinh^lip [1, 5]: (177 ± 37)^e 10^5 M^−1s^−1
0.56 | N#Cc1ccc2c(c1)Oc1ccccc1N2 [Compound 20, 3-cyanophenoxazine] | 3.6 ± 0.1 | 58 ± 1 nM | (27 ± 2) 10^5 M^−1s^−1 | 
0.55 | Cc1ccc2c(c1)Oc1cc(C#N)ccc1N2 [Compound 21, 3-Methyl-7-cyanophenoxazine] | 3.5 ± 0.1 | 22 ± 5 nM | (44 ± 6) 10^5 M^−1s^−1 | 
0.55 | COc1ccc2c(c1)Oc1cc(C#N)ccc1N2 [Compound 22, 3-Methoxy-7-cyanophenoxazine] | 3.1 ± 0.3 | 42 ± 6 nM |  | kinh^lip [1, 5]: (133 ± 15)^e 10^5 M^−1s^−1
0.69 | N#Cc1ccc2c(c1)Oc1cc([N+](=O)[O-])ccc1N2 [Compound 23, 3-cyano-7-nitrophenoxazine] |  | 455 ± 19 nM |  | kinh^lip [1, 5]: (1.6 ± 0.1)^e 10^5 M^−1s^−1
0.45 | FC(F)(F)c1ccc2c(c1)Sc1ccccc1N2 [Compound 26, 3-trifluoromethylphenothiazine, reference compound] | 2.6 ± 0.1 | 41 ± 5 nM | (9.8 ± 0.5) 10^5 M^−1s^−1 | 
0.47 | O=Cc1ccc2c(c1)Sc1ccccc1N2 [Compound 27, 3-formylphenothiazine, reference compound] | 2.2 ± 0.1 | 140 ± 10 nM | (14 ± 1) 10^5 M^−1s^−1 | 
0.52 | O=[N+]([O-])c1ccc2c(c1)Sc1ccccc1N2 [Compound 28, 3-nitrophenothiazine, reference compound] | 2.0 ± 0.1 | 140 ± 18 nM | (5.3 ± 0.3) 10^5 M^−1s^−1 | 
0.06 | Cc1cccc2c1Nc1c(C)cccc1S2 [Compound 31, 1,9-dimethylphenothiazine, reference compound] | 1.7 ± 0.1 | 35 ± 2 nM | (98 ± 5) 10^5 M^−1s^−1 | 
0.34 | COc1ccc2c(c1)Sc1cc(OC)ccc1N2 [Compound 32, 3,7-dimethoxyphenothiazine, reference compound] |  | 9 nM |  | kinh^lip [1, 9]: 840 ^f 10^5 M^−1s^−1; predicted increase in kinh^lip relative to PNX [1]: 3.8 fold
0.12 | Cc1cccc2c1Nc1c(C)cccc1O2 [Compound 36, 1,9-Dimethylphenoxazine] |  | 14 nM |  | kinh^lip [1, 9]: 1150 ^f 10^5 M^−1s^−1
0.39 | Cc1cc(C)c2c(c1)Nc1cc(C)cc(C)c1O2 [Compound 37, 2,4,6,8-Tetramethylphenoxazine] |  | 9.6 ± 0.2 nM |  | kinh^lip [1, 9]: 1500 ^f 10^5 M^−1s^−1
0.10 | Cc1cc(C)c2c(c1)Oc1cc(C)cc(C)c1N2 [Compound 38, 1,3,7,9-Tetramethylphenoxazine] |  | 7.6 ± 0.2 nM |  | kinh^lip [1, 9]: 1500 ^f 10^5 M^−1s^−1
0.42 | COc1ccc2c(c1)Oc1ccccc1N2 [Compound 39, 3-methoxyphenoxazine] |  | 12 nM |  | kinh^lip [1, 9]: 1490 ^f 10^5 M^−1s^−1; predicted increase in kinh^lip relative to PNX [1]: 6.7 fold
0.40 | COc1ccc2c(c1)Oc1cc(OC)ccc1N2 [Compound 40, 3,7-dimethoxyphenoxazine] |  | 11 nM |  | kinh^lip (predicted/estimated) [1]: 6e+06 M⁻¹ s⁻¹; kinh^lip [1, 9]: 6530 ^f 10^5 M^−1s^−1
0.38 | Cc1c(C)c2c(c(C)c1O)CCC(C)(C)O2 [PMC, 2,2,5,7,8-Pentamethyl-6-chromanol, reference compound] | (2) | 360 ± 30 nM | (29 ± 2) 10^5 M^−1s^−1 | kinh^lip (predicted/estimated) [1]: 35000 M⁻¹ s⁻¹; kinh^lip ([1]; measured in MeOAMVN-initiated autoxidation of egg PC liposomes): 29000 M⁻¹ s⁻¹
